{"source": "patent US20210220489A1", "about": "“AMYGDALAR NEURAL ENSEMBLE THAT ENCODES THE UNPL[…] PAIN” (The Board of Trustees of the Leland Stanford Junior …, priority 2020, published 2021)", "system": "control neuropathic mice", "assay": "Pain behaviors in control neuropathic mice not expressing hM4-mCherry in the BLA", "assay_type": "in vivo", "conditions": "absence of hM4 expression, CNO 10 mg/kg, morphine as positive control", "excerpt": "To induce a chronic pain state, we used a modified version of the Spared Nerve Injury (SNI) model of neuropathic pain, as previously described (70). This model entails surgical section of two of the sciatic nerve branches (common peroneal and tibial branches) while sparing the third (sural branch). […] To perform this peripheral nerve injury procedure, anesthesia was induced and maintained throughout surgery with isoflurane (4% induction, 1.5% maintenance in oxygen). The left hind leg was shaved and wiped clean with alcohol and betadine. We made a 1-cm incision in the skin of the mid-dorsal thigh, approximately where the sciatic nerve trifurcates. The biceps femoris and semimembranosus muscles were gently separated from one another with blunt scissors, thereby creating a <1-cm opening between the muscle groups to expose the common peroneal, tibial, and sural branches of the sciatic nerve. Next, −2 mm of both the common peroneal and tibial nerves were transected and removed, without suturing and with care not to distend the sural nerve. The leg muscles are left uncultured and the skin was closed with tissue adhesive (3M Vetbond), followed by a Betadine application. During recovery from surgery, mice were placed under a heat lamp until awake and achieved normal balanced movement. Mice were then returned to their home cage and closely monitored over the following three days for well-being.\nTo evaluate mechanical reflexive sensitivity, we used a logarithmically increasing set of 8 von Frey filaments (Stoelting), ranging in gram force from 0.07- to 6.0-g (93). These filaments were applied perpendicular to the plantar hindpaw with sufficient force to cause a slight bending of the filament. […] Using the Up-Down statistical method, the 50% withdrawal mechanical threshold scores were calculated for each mouse and then averaged across the experimental groups. The response frequency was calculated as the number of positive responses out of 10 stimulations, delivered at 30-s intervals.\nTo evaluate affective-motivational responses evoked by thermal stimulation (81), we applied either a single, unilateral 50-μL drop of water (5, 30, or 55° C.) or acetone (evaporative cooling) to the left hindpaw, and the duration of attending behavior was collected for up to 60 s after the stimulation. […] The track was subdivided into 25 temperature zones (4.8-cm D per zone), and we assessed the temperature at the center of each zone by a K-probe thermocouple. […] A video camera placed above the track recorded the position of the mouse within the temperature zones, and videos were later analyzed using a video-tracking software (Etho-vision, Noldus) for duration of zone occupancy, zone visits, distance, velocity, and acceleration.", "data": [{"smiles": "CN1CC[C@]23c4c5ccc(O)c4O[C@H]2[C@@H](O)C=C[C@H]3[C@H]1C5", "note": "[Morphine]", "values": [{"measurement": "affective-motivational behaviors", "setting": "acetone drop", "value": "reduced"}, {"measurement": "reflex behaviors", "setting": "von Frey filaments", "value": "reduced"}]}]}
